Where “and” joins values, the source holds several entries; their conditions need not be identical. Identical values can stand only once. Like-named read-outs stand apart in the source and are kept apart here. Each block holds one compound with its values, some of them ahead of it.
Experiments:
[1] = C-11-TPMP uptake kinetics in the myocardium (PET); assay type: in vivo; conditions: dog, five-fold increase (by adenosine) in flow
Method: We have examined the performance of C-11-triphenyl phosphonium cation (TPMP) for assessing regional myocardial flow in dog using PET (Kraus, 1994).
Methods: Four mCi of C-11-TPMP were introduced i.v., and dynamic images of increasing duration (15 sec to 20 min) were acquired over a total time of 85 min. Images were acquired on the GE 4096+ PET scanner (15 slices, 6.5 mm slice thickness). Images were reconstructed using backprojection, and corrected for attenuation. A detailed description of methods appears in Kraus, 1994. These images show excellent visualization of the myocardium with a high contrast to the surrounding lung tissue. During the plateau time period heart/lung ratio was >14:1, and heart/blood >100:1. Under baseline conditions (flow=69 ml/min/100 g), the extraction fraction is very high (91%). […] To investigate the relationship between myocardial blood flow and C-11-TPMP uptake in the heart, the LAD was occluded and the C-11-TPMP accumulation in tissue samples compared to microsphere determined regional myocardial blood flow. A significant correlation (r=0.93, p<0.01) was found at 5 min after LAD occlusion (FIG. 12). The non-infracted/infracted myocardium ratio was 12.1±2.4. […] Thallium 201 extraction under baseline flow is about 80%, decreasing to about 60% for five-fold increases in flow rate. […]

[2] = Stability of F-18-FBnTP in plasma after injection into mice (column switch HPLC); assay type: in vivo
Method: Radiochemical purity of F-18-FBnTP and its stability in vivo was measured by chromatography.
Samples of mouse plasma were obtained from heparinized whole bloodcollected 5, 15 and 30 min p.i. of the tracer. To eliminate binding to plasma proteins, the plasma was added to solid urea to give a final concentration of 8M urea. The plasma-urea was loaded into a column switch HPLC system (Hilton 2000), in which the plasma passes through a small capture column (Oasis Sorbent, Waters Corp.), which retains lipophilic solutes, while polar species fail to bind and are detected as they pass through a positron detector. After four minutes, the capture column is free of plasma proteins and polar species. Then, the contents of the capture column was swept onto an analytical column (Prodigy ODS-3, Phenomenex) by 40% acetonitrile, 60% triethylamine acetate buffer pH 4.1 at 1 mL/min, where separation of the parent compound and lipophilic metabolites occurs. The effluent from the analytical column also passes through the positron flow detector. The proportion of each species is determined from the area under each chromatographic peak. Results: Radiochemical purity of the 18F-labeled FBnTP was more than 95%. […] FIG. 1 depicts the chromatogram of plasma collected 30 min p.i., and the parental compound incubated for a similar time period (30 min) in buffered saline. […]

[3] = Stability of fluorination: total bone uptake; assay type: in vivo; conditions: mice, 5 and 30 min p.i., compared to mice injected with F-18 only; listed as F-18-FBnTP
Method: Methods: Mice were injected via the tail vein with 25 μCi of F-18-PhC; 5 and 30 min p.i., the left or right femur bone was removed, and bone radioactivity together with standard (1:100 of injected dose) were counted in a gamma counter. A parallel group of mice was injected with free fluorides (F-18). Three mice of each group were studied at each time point. Radioactivity is represented as percentage of injected dosed (% ID) and total bone uptake was calculated as activity in femur bone ×20.

[4] = test system: Human lung carcinoma H549 cells; assay: Mitochondria membrane potential (MMP)-dependent cellular uptake with CCCP; assay type: cell-based; conditions: CCCP 30, 60, 90, 120 μM, 30 min
Method: The extent of MMP-dependent cellular uptake of F-18-FBnTP was assessed using CCCP, a known protonophore that selectively abolishes the MMP.
Methods: Human lung carcinoma H549 cells ([…]) were incubated with 0.1 μCi/ml F-18-FBnTP for 30 min. Samples of the suspension (1 mL) were transferred to Eppendorf's vials and placed in a 370 C bath. Varying concentrations (30, 60, 90, 120 μM) of CCCP were added to the suspension. After 30 min of incubation with CCCP, the Eppendorf vials were centrifuged for 1 min, and activity in pellet and supernatant was immediately counted.

[5] = test system: orthotopic NMU mammary tumor; assay: Uptake in NMU mammary tumor versus healthy gland and FCA inflammation; assay type: in vivo; conditions: NMU-bearing female rats, 60 min after injection, normalized to muscle
Source text: The carcinogen nitrosomethyl urea (NMU) induces carcinoma tumors solely in the mammary gland of female rats. Therefore, the orthotopic NMU mammary tumor is an excellent model for evaluating tracer tumor selectivity by contrasting radioactivity accumulating in mammary gland infested with carcinoma cells and healthy mammary gland. Freund Complete Adjuvant (FCA) is a well_studied inflammation agent in rats Induction of FCA inflammation in NMU-bearing rats allows for direct quantitation of tracer capability to differentiate carcinoma from inflammation.
(§1) 0.1 ml of nitrosomethyl urea (NUM) was introduced i.p in female rats (150 g). When tumor reached an approximate size of 1 to 1.5 cm, FCA was injected (0.15 ml) to the hind limb footpad. Uptake assays were carried out 3 days thereafter. F-18-FBnTP (0.25 mCi) was injected via tail vein. Sixty minutes later tumor, inflamed tissue and healthy muscle tissue of the opposite limb (control) were collected on ice, weighed and counted in a gamma counter together with standards.

FCA-induced inflammation = assay: Accumulation in FCA-induced inflammation tissue and healthy muscle; assay type: in vivo, rats; conditions: for Inf/Control: ratio inflammation tissue to healthy muscle, 3 days after FCA; for Accumulation, Control: rats, healthy muscle, 3 days after administration of FCA
Method: as §1
The accumulation of the novel F-18-phosphonium cations, F-18-FBnTP and F-18-fluoropropyl triphenyl phosphonium (F-18-FPTP) in comparison with F18-FDG in FCA-induced inflammation and healthy tissue is presented in Table 2. Induction of inflammation and activity counting were carried out as described above. Fluorophosphonium compounds accumulate in inflammation much less than FDG (Table 2). These date provide strong evidence to our claim that F-18-phosphonium compound are suitable for differentiation of tumor from inflammation and may resolve a major drawback of F-18-FDG. Table 2: Accumulation of Fluorophosphonium Compounds (FBnTP and FPTP) FDG in inflammation tissue and healthy muscle 3 days after administration of FCA.

[6] = F-18-FBnTP uptake kinetics in the myocardium (PET); assay type: in vivo, Mongrel dogs; conditions: dog PET
Method: Methods: Mongrel dogs (BW=35 kg) were injected with 3-4 mCi of F-18-FBnTP. Images were acquired on a GE 4096+ scanner (15 slices, 6.5 mm slice thickness). PET scans of increasing duration (15 sec to 20 min) were acquired over a total time of 85 min post-injection. Arterial blood samples (0.5 ml in volume) were collected every few seconds for the first 3 minutes and at gradually increasing intervals (1 to 10 min) for the remaining time of the imaging study. The vascular and myocardial kinetics of F-18-FBnTP was analyzed using the ROI method.

[7] = F-18-FBnTP myocardial accumulation in pacing model of heart failure (PET); assay type: in vivo, mongrel dog
Method: Pacing of the mongrel dog heart at high rate (210 bpm) for a four weeks is a well-established model of heart failure. The advantage of this model is that the cardiomyopathy solely involve apoptosis without stenosis of coronary artery or related ischemia. Therefore, in this model the affect of apoptosis on FBnTP uptake can be dissected.
Methods: Preparation of dog and data acquisition was performed as described above. Mongrel dog was installed with a pacemaker in the rib case and underwent FBnTP PET scan (presented above). Following the baseline scan, the dog_s heart was paced at a rate of 210 bpm for 4 weeks and a second scan was acquired.
FIG. 18 depicts co-registered images before and after pacing. […] Quantitation of FBnTP in the myocardium was performed using region of interest placed on co-registered myocardial images, whose activity was normalized to the injected dose, before and after pacing. An example for ROI placement is illustrated in FIG. 18.

[8] = cited from earlier work
[9] = five-fold increases in flow rate / high flow rates

Compound: [18F]c1ccc(C[P+](c2ccccc2)(c2ccccc2)c2ccccc2)cc1 [[18F]FBnTP, F-18-fluorobenzyl triphenyl phosphonium]
stable after intravenous injection of the tracer in vivo ([2]; mice, plasma radiochromatograms): more than 30 min | single radio-peak in plasma chromatography, share of total activity ([2]; mouse plasma collected 5, 15 and 30 min p.i., no other peak observed): 97% | total bone uptake [3]: minimal bone uptake | MMP-dependent share of cellular uptake [4]: 86% | uptake in tumor relative to healthy gland [5]: 4 times | uptake in tumor relative to inflammation ([5]; FCA inflammation 3 days): 3 times | Inf/Control (FCA-induced inflammation): 0.42 | Accumulation, Control (FCA-induced inflammation): 0.76 ± 0.21 % ID/g tissue | washout from the blood pool ([6]; arterial blood samples): rapid washout | time to equilibrium of accumulation in the myocardium ([6]; persisted for the remaining scanning time (85 min)): within a few minutes | Ratio P/B ([7]; Slices 36-37, ROI1): 0.62 | Ratio P/B ([7]; Slices 36-37, ROI2): 0.91 | Ratio P/B ([7]; Slices 36-37, ROI3): 0.85 | Ratio P/B ([7]; Slices 46-49, ROI1): 0.56 | Ratio P/B ([7]; Slices 46-49, ROI2): 0.76 | Ratio P/B ([7]; Slices 46-49, ROI3): 0.82 | decrease in uptake in the inferior wall after pacing ([7]; dog, 210 bpm for 4 weeks, p<0.001): 40-60%

Compound: OC[C@H]1OC(O)[C@H]([18F])[C@@H](O)[C@@H]1O (some centres unmarked) [[^18F]FDG, reference compound]
Inf/Control (FCA-induced inflammation): 1.20 and 2.12 | Accumulation, Control (FCA-induced inflammation): 1.05 ± 0.35 % ID/g tissue and 0.68 ± 0.14 % ID/g tissue

Compound: [99Tc].[C-]#[N+]CC(C)(C)OC.[C-]#[N+]CC(C)(C)OC.[C-]#[N+]CC(C)(C)OC.[C-]#[N+]CC(C)(C)OC.[C-]#[N+]CC(C)(C)OC.[C-]#[N+]CC(C)(C)OC [[^99mTc]MIBI, Tc-99m-sestamibii]
myocardial extraction ([8]; baseline / normal flow): about 60% | myocardial extraction [8, 9]: 40%

Compound: Thallium 201
myocardial extraction ([8]; baseline / normal flow): about 80% | myocardial extraction [8, 9]: about 60%

Results, then the compound that gave them:

decrease of the extraction fraction [1]: 39%
Compound: [11CH3][P+](c1ccccc1)(c1ccccc1)c1ccccc1 [[11C]TPMP, C-11-triphenylmethyl phosphonium]

Inf/Control (FCA-induced inflammation): 0.25 | Accumulation, Control (FCA-induced inflammation): 0.29 ± 0.06 % ID/g tissue
Compound: [18F]CCC[P+](c1ccccc1)(c1ccccc1)c1ccccc1 [[18F]FPTP, [^18F]3-fluoropropyltriphenyl-phosphonium ion]
